ChEMBL document CHEMBL1201862, “PubChem BioAssay data set” (2004)
Active and inactive are the calls of the source.

What was measured:
[1] = biological target: Hexokinase HKDC1 (Homo sapiens, UniProt Q2TB90); assay: inhibition of HKDC1 glucose phosphorylation – biochemical, W721R variant, dose response (AID 504729); format: functional
[2] = biological target: DNA (cytosine-5)-methyltransferase 1 (Homo sapiens, UniProt P26358); assay: inhibition of DNA methylation by DNMT1 – biochemical, fluorescent molecular beacon, confirmation (AID 602386); format: functional
[3] = biological target: Cytochrome P450 2C9 (Homo sapiens, UniProt P11712); conditions: Potency
Sequence of Cytochrome P450 2C9 (P11712 whole entry): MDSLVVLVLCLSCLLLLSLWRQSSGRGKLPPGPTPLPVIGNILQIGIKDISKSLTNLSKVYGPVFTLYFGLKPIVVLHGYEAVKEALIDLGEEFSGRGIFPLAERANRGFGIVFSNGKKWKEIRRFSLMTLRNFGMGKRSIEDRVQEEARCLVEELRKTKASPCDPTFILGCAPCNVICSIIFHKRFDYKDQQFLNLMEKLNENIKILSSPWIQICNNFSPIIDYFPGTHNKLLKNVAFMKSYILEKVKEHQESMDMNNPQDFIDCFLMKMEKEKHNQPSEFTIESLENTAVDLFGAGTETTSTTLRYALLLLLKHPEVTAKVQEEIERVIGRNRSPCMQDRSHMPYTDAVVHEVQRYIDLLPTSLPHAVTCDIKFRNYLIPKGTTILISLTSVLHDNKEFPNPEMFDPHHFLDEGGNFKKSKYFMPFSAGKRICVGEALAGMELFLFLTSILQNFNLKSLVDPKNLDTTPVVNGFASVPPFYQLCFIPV

[4] = biological target: Cytochrome P450 3A4 (Homo sapiens, UniProt P08684); conditions: Potency;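 further: confirmatory qHTS run detecting inhibitors and substrates of CYP3A4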
Sequence of Cytochrome P450 3A4 (P08684 whole entry): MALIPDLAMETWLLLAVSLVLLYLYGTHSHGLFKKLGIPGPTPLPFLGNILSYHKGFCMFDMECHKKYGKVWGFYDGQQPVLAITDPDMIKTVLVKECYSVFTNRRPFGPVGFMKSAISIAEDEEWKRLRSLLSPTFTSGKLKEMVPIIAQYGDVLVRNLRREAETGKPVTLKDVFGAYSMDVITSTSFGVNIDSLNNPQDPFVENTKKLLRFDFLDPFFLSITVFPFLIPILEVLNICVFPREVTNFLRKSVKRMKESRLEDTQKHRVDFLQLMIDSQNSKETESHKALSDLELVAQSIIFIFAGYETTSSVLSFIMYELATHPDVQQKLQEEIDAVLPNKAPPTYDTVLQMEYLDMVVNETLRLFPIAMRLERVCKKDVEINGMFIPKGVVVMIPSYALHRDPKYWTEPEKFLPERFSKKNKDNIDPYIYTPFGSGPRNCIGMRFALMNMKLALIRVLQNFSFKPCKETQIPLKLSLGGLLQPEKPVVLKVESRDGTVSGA

[5] = viability loss in HeLa cells – cytotoxicity control for MgcRacGAP inhibitor project, dose response (AID 624300); format: functional
[6] = biological target: T1, Kappa-type opioid receptor (Homo sapiens, UniProt P41145); format: functional
T1 sequence (P41145 whole entry): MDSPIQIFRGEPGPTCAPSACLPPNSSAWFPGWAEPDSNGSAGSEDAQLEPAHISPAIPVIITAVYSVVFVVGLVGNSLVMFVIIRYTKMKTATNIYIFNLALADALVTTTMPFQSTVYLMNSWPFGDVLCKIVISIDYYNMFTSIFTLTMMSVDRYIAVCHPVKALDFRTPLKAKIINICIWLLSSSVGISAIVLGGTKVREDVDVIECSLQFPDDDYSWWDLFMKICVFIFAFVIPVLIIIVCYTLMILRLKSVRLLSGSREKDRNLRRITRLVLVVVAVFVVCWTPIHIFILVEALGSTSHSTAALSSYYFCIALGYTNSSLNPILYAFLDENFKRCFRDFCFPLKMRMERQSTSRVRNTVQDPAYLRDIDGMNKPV

[7] = biological target: Beta-galactosidase (Escherichia coli, UniProt Q8VNN2); format: functional
Sequence of Beta-galactosidase (Q8VNN2 whole entry): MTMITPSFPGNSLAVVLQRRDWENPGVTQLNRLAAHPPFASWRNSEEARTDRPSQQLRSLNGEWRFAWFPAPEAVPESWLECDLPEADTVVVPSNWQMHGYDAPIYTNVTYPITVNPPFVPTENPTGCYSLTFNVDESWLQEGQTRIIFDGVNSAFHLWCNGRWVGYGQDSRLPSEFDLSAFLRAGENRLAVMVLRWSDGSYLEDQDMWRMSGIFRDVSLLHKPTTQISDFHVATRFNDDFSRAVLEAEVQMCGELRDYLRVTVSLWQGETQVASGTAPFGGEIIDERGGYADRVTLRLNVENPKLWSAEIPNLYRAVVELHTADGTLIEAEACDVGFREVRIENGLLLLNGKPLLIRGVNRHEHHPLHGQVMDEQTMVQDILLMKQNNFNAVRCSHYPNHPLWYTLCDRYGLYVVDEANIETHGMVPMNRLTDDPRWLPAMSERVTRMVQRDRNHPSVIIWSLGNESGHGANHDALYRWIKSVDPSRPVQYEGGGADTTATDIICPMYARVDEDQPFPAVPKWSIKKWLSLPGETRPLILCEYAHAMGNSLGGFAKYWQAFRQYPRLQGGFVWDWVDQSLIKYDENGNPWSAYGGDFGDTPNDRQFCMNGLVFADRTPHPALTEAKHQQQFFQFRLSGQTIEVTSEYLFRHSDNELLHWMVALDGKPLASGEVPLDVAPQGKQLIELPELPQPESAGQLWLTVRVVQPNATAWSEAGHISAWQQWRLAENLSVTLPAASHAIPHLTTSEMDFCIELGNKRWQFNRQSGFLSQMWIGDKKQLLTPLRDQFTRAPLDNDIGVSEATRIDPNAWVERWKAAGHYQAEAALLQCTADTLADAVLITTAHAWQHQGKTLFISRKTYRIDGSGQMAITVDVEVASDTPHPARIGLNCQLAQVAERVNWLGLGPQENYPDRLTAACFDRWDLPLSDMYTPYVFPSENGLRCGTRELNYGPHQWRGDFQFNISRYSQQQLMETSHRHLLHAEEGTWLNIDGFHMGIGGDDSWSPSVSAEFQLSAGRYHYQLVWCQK

[8] = biological target: T1, Kappa-type opioid receptor; format: functional; remark: listed apart in the source
[9] = biological target: Matrix metalloproteinase-14 (Homo sapiens, UniProt P50281); assay: Dose Response confirmation of uHTS hits for a small molecule inhibitors of MT1-MMP activation in a fluorescence assay set 1.; format: functional
[10] = biological target: Nonstructural protein 1 (Influenza A virus, UniProt Q194T2); format: functional, Influenza A virus (A/California/07/2009(H1N1))
Sequence of Nonstructural protein 1 (Q194T2 whole entry): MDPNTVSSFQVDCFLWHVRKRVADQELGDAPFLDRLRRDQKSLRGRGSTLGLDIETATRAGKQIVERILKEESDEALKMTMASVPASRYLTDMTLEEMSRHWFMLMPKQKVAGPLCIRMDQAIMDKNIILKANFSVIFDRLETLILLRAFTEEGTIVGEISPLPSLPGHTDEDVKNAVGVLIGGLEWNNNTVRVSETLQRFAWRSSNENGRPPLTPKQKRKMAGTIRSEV

[11] = biological target: DNA dC->dU-editing enzyme APOBEC-3G (Homo sapiens, UniProt Q9HC16); assay: Dose Response confirmation of small molecule APOBEC3G DNA Deaminase Inhibitors via a fluorescence-based single-stranded DNA deaminase assay. [Related pubchem assays (depositor defined):AID493012, AID493028]; format: functional
Sequence of DNA dC->dU-editing enzyme APOBEC-3G (Q9HC16 whole entry): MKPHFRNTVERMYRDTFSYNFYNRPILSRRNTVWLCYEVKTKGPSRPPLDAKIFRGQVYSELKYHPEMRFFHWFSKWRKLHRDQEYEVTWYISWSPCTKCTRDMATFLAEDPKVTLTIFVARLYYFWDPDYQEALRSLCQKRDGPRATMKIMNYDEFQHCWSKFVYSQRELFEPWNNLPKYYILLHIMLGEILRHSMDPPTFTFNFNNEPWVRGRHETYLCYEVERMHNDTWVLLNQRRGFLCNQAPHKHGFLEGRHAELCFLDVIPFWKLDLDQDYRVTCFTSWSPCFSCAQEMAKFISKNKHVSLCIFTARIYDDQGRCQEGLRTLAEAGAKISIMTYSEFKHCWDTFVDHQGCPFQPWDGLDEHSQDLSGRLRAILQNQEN

[12] = biological target: T2, Polyadenylate-binding protein 1 (Homo sapiens, UniProt P11940); assay: MLLE binding blockers, Cy5 peptide tracer – biochemical, fluorescence polarization, Cy5-PAM2 peptide, secondary, miRNA deadenylation inhibitor project, dose response (AID 602260); format: functional; conditions: read-out: IC50_Mean
T2 sequence (P11940 whole entry, the tested form may be a part): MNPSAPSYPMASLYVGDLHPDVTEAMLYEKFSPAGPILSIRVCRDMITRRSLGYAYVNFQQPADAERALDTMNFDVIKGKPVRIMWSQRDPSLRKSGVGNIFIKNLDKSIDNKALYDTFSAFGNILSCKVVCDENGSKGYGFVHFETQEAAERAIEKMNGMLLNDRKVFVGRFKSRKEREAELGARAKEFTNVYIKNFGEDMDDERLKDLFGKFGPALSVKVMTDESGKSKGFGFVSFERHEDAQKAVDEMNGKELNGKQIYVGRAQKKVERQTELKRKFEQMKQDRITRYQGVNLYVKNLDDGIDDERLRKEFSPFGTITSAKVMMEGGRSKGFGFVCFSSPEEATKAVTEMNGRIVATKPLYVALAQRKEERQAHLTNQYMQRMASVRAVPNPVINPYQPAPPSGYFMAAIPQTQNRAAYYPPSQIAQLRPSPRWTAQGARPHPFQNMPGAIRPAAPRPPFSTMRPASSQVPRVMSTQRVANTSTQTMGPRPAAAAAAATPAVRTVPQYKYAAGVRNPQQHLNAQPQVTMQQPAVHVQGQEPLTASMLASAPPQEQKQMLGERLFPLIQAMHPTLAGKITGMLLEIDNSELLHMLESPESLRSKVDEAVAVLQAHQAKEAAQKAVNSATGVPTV

[13] = biological target: T2, Polyadenylate-binding protein 1; assay: MLLE domain peptide-binding blockers, IC50 – biochemical, fluorescence polarization, FITC-PAM2 peptide, dose response (AID 602259); format: functional; conditions: read-out: IC50_Mean
[14] = biological target: Eukaryotic translation initiation factor 4E (Mus musculus, UniProt P63073); assay: blockers of eIF4G binding by eIF4E – biochemical, TR-FRET, dose response (AID 855); format: functional;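 further: potency for disrupting eIF4E binding to eIF4GI seen as loss of FRET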
Sequence of Eukaryotic translation initiation factor 4E (P63073 whole entry): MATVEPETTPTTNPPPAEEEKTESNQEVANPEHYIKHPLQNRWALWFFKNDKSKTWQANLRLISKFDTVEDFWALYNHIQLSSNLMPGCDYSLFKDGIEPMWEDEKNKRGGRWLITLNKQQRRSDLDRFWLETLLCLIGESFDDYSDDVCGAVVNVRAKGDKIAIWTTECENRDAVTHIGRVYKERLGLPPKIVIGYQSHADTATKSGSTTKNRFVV

[15] = biological target: T3, Mannose-6-phosphate isomerase (Homo sapiens, UniProt P34949); assay: MPI inhibition at elevated mannose 6-phosphate – biochemical, fluorescence intensity, high mannose 6-phosphate, primary screen (AID 1220)
T3 sequence (P34949 whole entry): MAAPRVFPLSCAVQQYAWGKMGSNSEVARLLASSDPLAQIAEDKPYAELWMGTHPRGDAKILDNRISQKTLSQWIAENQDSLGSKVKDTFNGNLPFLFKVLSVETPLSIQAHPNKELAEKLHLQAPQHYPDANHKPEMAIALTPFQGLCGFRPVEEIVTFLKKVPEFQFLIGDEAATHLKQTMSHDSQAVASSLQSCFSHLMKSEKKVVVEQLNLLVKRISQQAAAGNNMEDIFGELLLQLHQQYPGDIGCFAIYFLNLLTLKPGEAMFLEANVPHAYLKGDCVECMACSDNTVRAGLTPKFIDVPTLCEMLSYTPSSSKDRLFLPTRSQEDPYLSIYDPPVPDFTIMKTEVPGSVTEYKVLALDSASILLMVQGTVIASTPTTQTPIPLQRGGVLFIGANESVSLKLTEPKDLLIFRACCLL

[16] = biological target: Induced myeloid leukemia cell differentiation protein Mcl-1 (Homo sapiens, UniProt Q07820); format: functional
Sequence of Induced myeloid leukemia cell differentiation protein Mcl-1 (Q07820 whole entry): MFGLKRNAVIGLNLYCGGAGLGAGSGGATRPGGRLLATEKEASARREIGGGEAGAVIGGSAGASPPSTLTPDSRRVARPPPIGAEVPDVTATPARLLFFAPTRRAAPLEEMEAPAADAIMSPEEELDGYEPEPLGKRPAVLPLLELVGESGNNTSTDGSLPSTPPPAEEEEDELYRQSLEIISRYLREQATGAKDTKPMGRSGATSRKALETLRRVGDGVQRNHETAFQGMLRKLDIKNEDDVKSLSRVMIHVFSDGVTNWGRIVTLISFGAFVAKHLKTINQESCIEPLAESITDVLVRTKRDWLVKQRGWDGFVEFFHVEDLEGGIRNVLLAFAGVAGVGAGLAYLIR

[17] = test system: INS1; assay: INS-1E survival protection against cytokine death – cell-based, luminescence, retest, dose response (AID 449756); format: functional; conditions: Rattus norvegicus;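 further: cell death triggered by IL-1 beta plus TNF-alpha plus IFN-gamma mixture; protective hits raise ATP signal compared with cytokine alone wells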

**Q.** For Cc1ccc(N2C(=O)NC(=O)/C(=C\c3cc(C)n(-c4sc5c(c4C#N)CCCC5)c3C)C2=O)cc1, which IC50 [1] is on record?
**A.** 14.1 µM (active)

**Q.** What about the IC50 [2] of the same molecule?
**A.** 11.1 µM (active)

**Q.** For CC1CCC2C(=O)N3C(CCC(C)C3c3ccccc3Br)C(=O)N2C1c1ccc(C#CCN(C)C)cc1 (stereo not drawn), which AC50 [3] is on record?
**A.** 3.98 µM (inconclusive)

**Q.** What about the AC50 [4] of the same molecule?
**A.** 3.16 µM (inconclusive)

**Q.** Which AC50 [3] does the source give for CC(C)[C@@H](CC(=O)N[C@@H]1CCCC[C@H]1C(=O)N[C@H](CC(=O)N[C@@H](CCC(=O)O)CC(=O)O)Cc1c[nH]c2ccccc12)NC(=O)C[C@H](CO)NC(=O)[C@@H]1CNCC[C@H]1N here?
**A.** 31.6 µM (inconclusive)

**Q.** Which CC50 [5] does the source give for CC1=NN(c2ccccc2)C(=O)/C1=C/C=C/c1ccc(N(C)C)cc1 here?
**A.** 95.1 µM (active)

**Q.** And the IC50 [6]?
**A.** 8.28 µM (active)

**Q.** And the EC50 [7]?
**A.** 7.93 µM (active)

**Q.** What about the IC50 [8] of the same molecule?
**A.** > 32 µM

**Q.** What about the IC50 [9] of the same molecule?
**A.** > 80 µM (inactive)

**Q.** What about the IC50 [10] of the same molecule?
**A.** 3.14 µM (active)

**Q.** Which IC50 [11] does the source give for CCOC(=O)c1ccc(NC(=O)CC2Sc3ncnn3C2=O)cc1 (stereo not drawn) here?
**A.** 61.8 µM (active)

**Q.** What about the IC50 [12] of the same molecule?
**A.** > 66 µM (inactive)

**Q.** What about the IC50 [13] of the same molecule?
**A.** > 66 µM (inactive)

**Q.** Which results are given for CCN1c2ccccc2N(C)C1(C)c1ccccc1 (stereo not drawn)?
**A.** IC50 [14]: 49.4 µM (inactive); IC50 [15]: 13.7 µM (active); IC50 [16]: 9.19 µM (active); AC50 [17]: 2.14 µM (active)
